According to patent US11793820B2, “Dry powder foamable formulations for delivery of medicaments through the mucosa” (priority 2021, dated 2023):

What was measured:
[1] = Safety and tolerability of the oral rinse; assay type: in vivo, human; settings: for safe administration: 200 mg WR-2721 (10 ml 0.09 M) or 125 mg WR-1065 (10 ml 0.09 M)
Procedure: The amifostine is administered to the patient in the formulation described above (Table 2). Specifically, 125 mg of amifostine is provided as an oral rinse. The patient rinses for approximately one minute and thereafter, expels/discards the rinse. The rinse process can be repeated.
In this study, WR-1065 is detected in washed, isolated, vital mouth mucosa cells at a concentration of about 3.7-19.9 ng/10^5 cells.

[2] = intravenous administration; cited from earlier work
[3] = tested on: epirubicin-induced oral mucositis; settings: cited from earlier work
[4] = cited from earlier work
[5] = after amifostine injection; cited from earlier work

Row | Compound | safe administration [1] | clearance from the plasma [2] | difference between patients given amifostine oral rinse and control [3] | pH of the maximal rate of hydrolysis ([4]; hydrolysis of P-S bond to WR-1065) | stability at the gastric pH ([4]; pH from 1 to 3) | time of maximum tissue concentrations of WR-1065 [5] | systemic side-effects ([1]; oral rinse) | tolerability ([1]; oral rinse)
1 | NCCCNCCSP(=O)(O)O [Amifostine, S-2-(3-aminopropylamino) ethyl dihydrogen phosphorothioate] | can be safely administered | rapidly cleared | no significant difference | 3.0 | unstable |  |  | 
2 | NCCCNCCS [WR-1065] | can be safely administered |  |  |  |  | within five to fifteen minutes | no systemic side-effects | well-tolerated
